# Measured values published in article PMC5571359, “Screening the Medicines for Malaria Venture Pathogen Box across Multiple Pathogens Reclassifies Starting Points for Open-Source Drug Discovery” (Antimicrobial Agents and Chemotherapy, 2017).
# Read-outs that look alike come from different tables or passages of the source.
# Assays:
# [1] = test system: T. b. brucei 427 bloodstream trypanosomes; test: T. b. brucei resazurin viability assay; assay type: cell-based, Trypanosoma brucei brucei; conditions: for IC50: Trypanosoma brucei
# T. brucei rhodesiense = conditions: ref Pbox supporting information, cited from earlier work; for IC50: read-out: T .b. rohdensie Pbox IC50
# T. brucei brucei = conditions: ref Pbox supporting information, cited from earlier work
# HEK293 cells = test: HEK293 resazurin cell cytotoxicity assay; conditions: Homo sapiens
# [2] = test system: T. cruzi intracellular amastigotes; test: Intracellular anti-Trypanosoma cruzi image-based assay (amastigotes); assay type: cell-based; conditions: for IC50: Trypanosoma cruzi, intracellular amastigotes
# [3] = test system: T. cruzi C4 β-galactosidase reporter parasite in MRC 5SV2 host cells; conditions: cited from earlier work
# [4] = test system: L. donovani MHOM/IN/80/DD8 intracellular amastigotes; test: Leishmania donovani intracellular amastigote assay in THP-1 cells; assay type: cell-based; conditions: Leishmania donovani, THP-1, intracellular amastigotes
# [5] = test system: L. infanium (macrophages); set-up: method as in Pbox supporting information; conditions: ref Pbox supporting information; cited from earlier work
# HepG2 = conditions: HepG2; ref PBox supporting information; cited from earlier work
# [6] = test system: Plasmodium falciparum 3D7 asexual blood stage; test: microbe, parasite or virus in culture
# [7] = test system: NF54-pfs16-LUC-GFP stage IV gametocytes; test: Plasmodium falciparum late stage gametocyte (LSG) image-based assay; assay type: cell-based; conditions: for IC50: Plasmodium falciparum, NF54, read-out: Pf Stage IV GAMS Discovery Biology IC50 µM, stage IV gametocytes
# [8] = test system: P. falciparum stage V gametocytes; conditions: cited from earlier work; for activity against gametocytes (stage V), PBox supporting information: ref Pbox supporting information; for IC50: stage V gametocytes, ref PBox supporting information, read-out: PF stage V GAMS PBox IC50
# P. falciparum ABS = conditions: P. falciparum 3D7; ref PBox supporting information; read-out: Pf 3D7 Pbox IC50; cited from earlier work
# [9] = read-out: T b.brucei Discovery Biology IC50
# [10] = read-out: T.b. brucei Pbox IC50
# [11] = read-out: T cruzi Discovery Biology IC50
# [12] = ref Pbox supporting information, read-out: T. cruzi Pbox IC50
# [13] = HEK293, read-out: HEK % Inhibition 20uM/IC50 Discovery Biology
# [14] = PBox compounds, 48 h exposure, read-out: IC50 T. cruzi (Discovery Biology)
# [15] = HEK293, read-out: HEK % Inhibition 20uM/IC50 Discovery Biology (IA)
Structure (SMILES),"IC50 [1, 9]",IC50 (T. brucei rhodesiense),IC50 (T. brucei brucei; [10]),"IC50 [2, 11]","IC50 [3, 12]",IC50 [5],IC50 (HEK293 cells; [13]),also measured
O=C(Nc1ccc(F)c(-c2nc3cc(-c4ccccc4)cnc3[nH]2)c1)N1CCCC1 [MMV688372],20 nM,< 130 nM,< 130 nM,190 nM,< 130 nM,160 nM,,"IC50 (HEK293 cells; HEK293, read-out: HEK % Discovery Biology IC50): 4600 nM; IC50 ([4]; PBox compounds, read-out: IC50 L. donovani (Discovery Biology)): 1150 nM; IC50 ([4]; some values marked *, read-out: L, donovani Discovery Biology IC50): 1510 nM"
CCCCN(CCCC)c1c(C#N)cc(S(=O)(=O)Nc2ccccc2)cc1C#N [MMV688467],1150 nM,240 nM,260 nM,,820 nM,13600 nM,> 20000 nM,"IC50 [2, 14]: 3980 nM; HepG2 PBox CC20 (HepG2): 11900 nM"
CCc1ccccc1-n1c(C)cn2c3c(=O)n(C(C(=O)OC)C(C)C)c(=O)n(C)c3nc12 (centres unmarked) [MMV688550],130 nM,< 130 nM,< 130 nM,640 nM,990 nM,> 32000 nM,> 20000 nM,"selectivity index (SI) T. brucei brucei versus HEK293 ([1]; HEK293): > 154; IC50 ([6]; 3D7, read-out: Antiplasmodial IC50 (ABS), PBox compounds, P. falciparum 3D7): 2.48 µM; selectivity index (SI) T. cruzi versus HEK293 ([2]; HEK293): > 31; HepG2 PBox CC20 (HepG2): 44300 nM"
O=C(NCCc1ccn(-c2ccccc2)n1)C1CCCCC1 [MMV688795],270 nM,< 130 nM,150 nM,930 nM,740 nM,> 64000 nM,> 20000 nM,
O=C(NCc1nnc2n1CCCCC2)c1ccc(-c2ccc(F)cc2)o1 [MMV688796],230 nM,130 nM,100 nM,1520 nM,2070 nM,> 64000 nM,> 20000 nM,activity against T. brucei rhodesiense (T. brucei rhodesiense): demonstrated activity
CC1CCCCN1C(=O)NCCc1coc(-c2ccc(F)cc2)n1 (centres unmarked) [MMV688797],130 nM,110 nM,130 nM,370 nM,480 nM,> 64000 nM,> 20000 nM,
Cc1ccc(S(=O)(=O)Nc2ccc(CN3CCN(C(=O)c4cccc(C#N)c4)CC3)cc2)cc1 [MMV689028],,120 nM,,,,32000 nM,> 20000 nM,"IC50 ([1]; PBox compounds, read-out: IC50 T. brucei brucei (Discovery Biology)): 240 nM; activity against T. brucei rhodesiense (T. brucei rhodesiense): demonstrated activity; IC50 (T. brucei brucei; read-out: T. brucei brucei IC50, PBox): 140 nM; IC50 [2, 14]: 670 nM; IC50 ([3]; 7 days exposure, ref PBox supporting information, read-out: T. cruzi IC50 in the PBox supporting information file): 1200 nM"
COc1ccc(S(=O)(=O)Nc2ccc(CN3CCN(C(=O)c4cccc(C#N)c4)CC3)cc2)cc1 [MMV689029],1080 nM,400 nM,500 nM,1390 nM,2700 nM,52200 nM,> 20000 nM,activity against T. brucei rhodesiense (T. brucei rhodesiense): demonstrated activity
O=C(Nc1nc(-c2ccccn2)cs1)C1CC1c1ccccc1F (centres unmarked) [MMV1028806],,,,,,,,"IC50 (HEK293 cells; [15]): > 20000 nM; activity in the Discovery Biology stage IV gametocyte (LSG) assay [7]: demonstrate activity; IC50 [7]: 0.42 µM; activity against gametocytes (stage V), PBox supporting information [8]: demonstrate activity; IC50 [8]: 520 nM; IC50 (P. falciparum ABS): > 2000 nM"
CCCn1c(NC(=O)c2ccc3ccccc3n2)nc2ccccc21 [MMV1030799],,,,,,,,"IC50 ([6]; 3D7, read-out: Pf 3D7 Discovery Biology IC50 µM, P. falciparum 3D7 asexual blood stage): 2.59 µM; IC50 (HEK293 cells; [15]): > 20000 nM; activity in the Discovery Biology stage IV gametocyte (LSG) assay [7]: demonstrate activity; IC50 [7]: 2.5 µM; activity against gametocytes (stage V), PBox supporting information [8]: demonstrate activity; IC50 [8]: 560 nM; IC50 (P. falciparum ABS): > 2000 nM"
Cc1ccc(-c2nc(CN(Cc3ccccn3)C(C)C)cs2)o1 [MMV1088520],,,,,,,,inhibition at 20 µM (HEK293 cells; [13]): 79%; IC50 [7]: 0.67 µM; IC50 [8]: 450 nM; IC50 (P. falciparum ABS): > 2000 nM
